Experimental data: publication PMC5108032, “Discovery of a Quinoline-4-carboxamide Derivative with a Novel Mechanism of Action, Multistage Antimalarial Activity, and Potent in Vivo Efficacy” (Journal of Medicinal Chemistry, 2016)

Experiments:
[1] = Intrinsic clearance (Cli) in human liver microsomes; type: in vitro ADME; conditions: human liver microsome
Description: inhibition at top, C= EC50, D= slope, x= inhibitor concentration and y= % inhibition. […]
reach 100% of inhibition, B was fixed to 100 only when at least 50% of inhibition was reached.
Plasmodium falciparum late stage (IV-V) gametocyte high content imaging assay Plasmodium falciparum NF54-pfs16-LUC-GFP stage IV-V Gametocytes were produced as described previously.5 Compounds were solubilized in DMSO and serially diluted in three concentrations per log standard curves in DM SO. One µl of compound was subsequently diluted in 25µl of water (4% DMSO) and 5µl transferred into the base of 384 well PerkinElmer CellCarrier plates. Forty-five µl of stage IV-V gametocytes (10%P in 0.1%H) were added to the imaging plates which were in turn sealed with a gas permeable membrane and incubated at 37°C, 5% CO 2, 5% O2, 90% N2 and 60% humidity […]
Post incubation, 5µl of MitoTracker® Red CM -H2Xros (MTR) solution (0.66ug/ml) was added to all wells and the plates incubated for a further 16hours. The assay plates were then imaged and the number of viable gametocytes determined for test compounds plus 0.4%DMSO and 5µM Puromycin.
(0.4%DMSO) control values. Percent inhibition was plotted against log compound concentration using a 4 parameter log dose, non-linear regression analysis, with sigmoidal dose response (variable slope) curve fit using Prizm 4.0. IC50 values were obtained from this curve fit. The compound testing was performed in duplicate point within two separate experiments.
Plasmodium berghei ookinete development assay
Assay was performed as previously reported.6 Briefly blood containing P. berghei CTRPp-GFP gametocytes was rapidly harvested from infected mice and introduced to test compounds pre-diluted in ookinete medium (to induce gamete formation and support ookinete development) in 96-well plates. Plates were incubated in the dark at 21°C for 22 hr before GFP fluorescence intensity measured in a plate reader. % inhibition of ookinete formation was calculated with reference to the fluorescence intensity values of a positive control (20 µM cycloheximide) and a solvent-only negative control (DMSO). All assays were performed in triplicate independent experiments and EC50 values calculated in Graphpad Prism.
The aqueous solubility of the test compounds was measured using laser nephelometry, as described previously.7 Compounds were subject to serial dilution from 10 mg/mL to 0.5 mg/mL in DMSO. An aliquot was then mixed with MilliQ water to obtain an aqueous dilution plate with a final concentration range of 100 – 5 μg/mL, with a final DMSO concentration of 1.0%. Triplicate aliquots were transferred to a flat bottomed polystyrene plate which was immediately read on the NEPHELOstar (BMG Lab Technologies). The amount of laser scatter caused by insoluble particulates (relative nephelometry units, RNU) was plotted against compound concentration using a segmental regression fit, with the point of inflection being quoted as the compounds aqueous solubility (μg/mL; […]
Intrinsic Clearance (Cli) experiments
The procedure was carried out as reported previously.7 Test compound (0.5 µM) was incubated with female CD1 mouse, male sprague-dawley rat or pooled human mixed gender liver microsomes (Xenotech LLC TM; 0.5 mg/mL 50 mM potassium phosphate buffer, pH 7.4) and the reaction initiated […]
by the addition of excess NADPH (8 mg/mL 50 mM potassium phosphate buffer, pH 7.4). […]

Mouse pharmacokinetics = type: in vivo, female NMRI mice; conditions: intravenous at 3 mg/kg
Experimental: (100 µl) was then removed from both acceptor and donor compartments and mixed with acetonitrile (80 µl) containing an internal standard. The samples were centrifuged (10 min, 5 °C, 3270 g) to sediment precipitated protein and sealed prior to UPLC-MS/MS analysis using a Quattro Premier XE (Waters Corp, USA). Pe was calculated as shown in the below equation:
Pe (nm/sec) = 107 x - In [1 - CA (t) / Cequi]
CA(t) = peak area of compound present in acceptor well at time t = 18000 sec Cequi = [CD(t) * VD + CA(t) * VA] / (VD + VA)
VA = acceptor well volume
CD(t) = peak area of compound present in donor well at time t = 18000 sec Recovery of compound from donor and acceptor wells was calculated and data was only accepted when recovery exceeded 70 %.
Human ether-à-go-go related gene (hERG) K+ assay (Outsourced)
Compounds were tested for inhibition of the human ether-à-go-go-related gene (hERG) K+ channel using IonWorks patch clamp electrophysiology. Eight-point concentration-response curves were generated on 2 occasions using 3-fold serial dilutions from the maximum final assay concentration.
Compound was dosed as a bolus solution intravenously (12) at 3mg free base/kg (dose volume: 5 mL/kg; dose vehicle: 10% DMSO, 90% saline) to female NMRI mice (n=3) or dosed orally (12 and 13) by gavage as a solution at 10 mg free base/kg (dose volume: 10mL/kg; Dose vehicle: 5 or 10% DMSO; 40% PEG400; 50 or 55% distilled water) to female NMRI mice (n=3/dose level). Female NMRI mice were chosen as these represent the sex and strain used for the P.berghei mouse model of malaria. Blood samples (10 µl) were taken from each mouse at 5, 15 and 30 minutes, 1, 2, 4, 6, and 8 hours post-dose, mixed with two volumes of distilled water and stored frozen until UPLC-MS/MS analysis. The level of each compound in mouse blood was determined by UPLC-MS/MS as previously reported.9 Pharmacokinetic parameters were derived from the blood concentration time curve using PKsolutions software v 2.0 (Summit Research Services, USA). […]

O=C(NCCN1CCCC1)c1cc(NCCCCN2CCOCC2)nc2ccc(Cl)cc12 [Compound 27, 6-Chloro-2-((4-morpholinobutyl)amino)-N-(2-(pyrrolidin-1-yl)ethyl)quinoline-4-carboxamide]
HLM Cli [1]: <1 mL min^–1 g^–1
Clb (Mouse pharmacokinetics): 4 mL min^–1 kg^–1

O=C(NCCN1CCCC1)c1cc(-c2ccc(CN3CCOCC3)cc2F)nc2ccc(F)cc12 [Compound 41]
HLM Cli [1]: 1.5 mL min^–1 g^–1

O=C(NCCN1CCCC1)c1cc(NCCC2CCOCC2)nc2ccc(Cl)cc12 [Compound 30, 6-Chloro-N-(2-(pyrrolidin-1-yl)ethyl)-2-((2-(tetrahydro-2H-pyran-4-yl)ethyl)amino)quinoline-4-carboxamide]
HLM Cli [1]: 1 mL min^–1 g^–1
Clb (Mouse pharmacokinetics): 34 mL min^–1 kg^–1

O=C(NCCN1CCCC1)c1cc(NCCCN2CCOCC2)nc2ccc(F)cc12 [Compound 25, 6-Fluoro-2-((3-morpholinopropyl)amino)-N-(2-(pyrrolidin-1-yl)ethyl)quinoline-4-carboxamide]
HLM Cli [1]: <0.5 mL min^–1 g^–1
Clb (Mouse pharmacokinetics): 14 mL min^–1 kg^–1
